Data reported in patent US20240408068A1, “Helicase Primase Inhibitors For Treating Cancer In A Combination Therapy With Oncolytic Viruses” (priority 2018, published 2024).

Legend:
[1] = test system: HSV-1; test: Viral DNA (HSV-1 copies) within treated tumor samples, first oHSV experiment; format: in vivo, Balbc/j mice; conditions: for Total HSV-1 [copy/g tumor] mean: day 19
Method: At the end of efficacy monitoring period (on day 19 post-tumor cell inoculation, around ˜3-4 h after the last treatment with test compound), all surviving mice were anesthetized using isoflurane gas anesthesia (4% induction and 2% maintain) prior to blood sampling on heparin-coated tubes by retro-orbital puncture, for plasma collection. In addition, tumors were collected, snap-frozen, and stored at −80° C. until further analysis.
The tumors were collected as described above, snap frozen in liquid nitrogen and DNA of ˜25 mg tumor samples was extracted with a QIAamp DNA Mini Kit (Cat. No. 51326) on a QIAcube machine. 10 μL of the 200 μL HSV DNA containing elution volumue was quantified with an Argene HSV R-gene kit (Ref.: 69-004B) and normalized to 1 gram tumor sample (see below).

[2] = test system: HSV-2; test: In vitro activity, HSV-2 infected Vero cells; format: cell-based; conditions: Human alphaherpesvirus 2, Vero
Method: The in vitro activity of the new compounds was measured as described in WO2017/174640 and in WO2019/068817.

[3] = test system: HSV-1; test: Survival of mice in first oHSV experiment; format: in vivo, Balbc/j mice; conditions: high dose HSV group subsequently treated with compound
Method: Pharmacological animal groups (8 animal per group, 64 animals in total) were organized as such: • 1. Control virus-untreated group: test compound vehicle (200 μL, 5% DMSO; 0.5% hydroxypropylmethylcellulose (HPMC) in PBS) oral gavage (20 gauge needle standard suspension applicator), once a day, for 10 days and starting 72 h after virus injection for the other groups. • 2. Control virus vehicle-treated group: 50 μL of virus vehicle, intratumoral injection when tumors reached an average volume of app. 40 mm^3, with test compound vehicle, oral gavage, once a day, for 10 days and starting 72 h after vehicle virus injection. • 3. HSV-1 (quantity 1; 5×10^6 pfu)-treated group: 50 μL of HSV-1 (5×10^6), intratumoral injection when tumors reached an average volume of app. […] HSV-1 (quantity 2; 1×10^8 pfu)-treated group: 100 μL of HSV-1 (1×10^8) intratumoral injection when tumors reached an average volume of app. […] HSV-1 (quantity 1; 5×10^6 pfu)-test compound-treated group: 50 μL of HSV-1 (5×10^6), intratumoral injection when tumors reached an average volume of app. […] HSV-1 (quantity 2; 1×10^8 pfu)-test compound-treated group: 100 μL of HSV-1 (1×10^8), intratumoral injection when tumors reached an average volume of app. […]
As previously mentioned, tumor volume and body weight of the animals were measured and recorded three times per week. […]

Q: Cc1nc(N(C)C(=O)Cc2ccc(-c3cc(F)ccc3F)cc2)sc1[S@@](C)(=N)=O [Example 7(−), (−)-(S)-2-(2′,5′-Difluoro-[1,1′-biphenyl]-4-yl)-N-methyl-N-(4-methyl-5-(S-methylsulfonimidoyl)thiazol-2-yl)acetamide] was tested. Which “Total HSV-1 [copy/g tumor] mean” value ([1]; Group 5: HSV-1 5 × 10^6 pfu + 10 mg/kg 72 pi) did it give?
A: 154493 copy/g tumor

Q: What about the “Total HSV-1 [copy/g tumor] mean” value ([1]; Group 6: HSV-1 5 × 10^6 pfu + 10 mg/kg 72 pi + αPD1 + αCTLA-4) of the same compound?
A: 51301 copy/g tumor

Q: And the “Total HSV-1 [copy/g tumor] mean” value ([1]; Group 7: HSV-1 1 × 10^8 pfu + 10 mg/kg 72 hpi)?
A: 74312 copy/g tumor

Q: And the “Total HSV-1 [copy/g tumor] mean” value ([1]; Group 8: HSV 5 × 10^6 pfu + 10 mg/kg 2 h pi)?
A: 10600 copy/g tumor

Q: And the “reduction in viral DNA load” value ([1]; treatment 2 hours post infection compared to 72 hours delayed treatment)?
A: highest reduction in viral DNA load

Q: What about the IC50 [2] of the same compound?
A: 0.01 to 0.05 µM

Q: And the “rescue of mice from virus-induced death” value [3]?
A: the mice can be rescued
